Measured values as given in patent publication US20220118121A1, “PROSTATE SPECIFIC MEMBRANE ANTIGEN (PSMA) LIGANDS WITH IMPROVED TISSUE SPECIFICITY” (Ruprecht-Karls-Universität Heidelberg, priority 2019, published 2022).
Read-outs that look alike come from different tables or passages of the source. Where a SMILES comes first, the peptide text is derived from it. [ ]: non-standard residue; d: D form. The star is where a group is joined. DOTA = O=C(O)CN1CCN(CC(=O)O)CCN(CC(=O)*)CCN(CC(=O)O)CC1; EuK = O=C(O)CC[C@H](NC(=O)N[C@@H](CCCCN*)C(=O)O)C(=O)O; 2Nal = N[C@@H](Cc1ccc2ccccc2c1)C(=O)O; Trx = NC[C@H]1CC[C@H](C(=O)O)CC1

How the values were obtained:
PSMA = biological target: T1, PSMA (Homo sapiens, UniProt Q04609); assay: competitive cell binding assay vs 68Ga-labeled PSMA-10 on LNCaP cells
T1 construct: host or cells: LNCaP cells
Experimental: (§1) PSMA^+ LNCaP cells (ATCC CRL-1740) were cultured in RPMI medium. Cells were grown at 37° C. in humidified air with 5% C02 and were harvested using trypsin-ethylenediaminetetraacetic acid.
(§2) The competitive cell binding assay and internalization experiments were performed according to Eder M et al. (2012), Bioconjug Chem 23(4):688.
Briefly, the cells (10^5 per well) were incubated with a 0.8 nM solution of ^68Ga-labeled radioligand [Glu-urea-Lys(Ahx)]2-HBED-CC (PSMA-10, precursor ordered from ABX, Radeberg, Germany) in the presence of 12 different concentrations of analyte (0-5000 nM, 100 μL/well). After incubation, the mixture was removed and the wells were washed 3 times with PBS using a multiscreen vacuum manifold (Millipore, Billerica, Mass.). Cell-bound radioactivity was measured using a gamma counter (Packard Cobra II, GMI, Minnesota, USA). The 50% inhibitory concentration (IC50) values were calculated by fitting the data using a nonlinear regression algorithm (GraphPad Software).

PSMA+ LNCaP cells = assay: cell surface binding and internalization of radiolabeled compounds; type: cell-based; conditions: for Specific Cell Surface Binding / Specific Internalization / Cell Surface binding / Internalization: 68Ga-labeled; for Specific cell surface bound / Specific internalized: 177Lu-labeled, LNCaP cells
Experimental: as §1, §2
For internalization experiments, 10^5 cells per well were seeded in poly-L-lysine coated 24-well cell culture plates 24 h before incubation. After washing, the cells were incubated with 30 nM of the ^68Ga- or ^177Lu-radiolabeled compound for 45 min at 37° C. and at 4° C., respectively. Cellular uptake was terminated by washing 3 times with 1 mL of ice-cold PBS. To remove surface-bound radioactivity, cells were incubated twice with 0.5 mL glycine-HCl in PBS (50 mM, pH=2.8) for 5 min. The cells were washed with 1 mL of ice-cold PBS and lysed using 0.3 N NaOH (0.5 mL). The surface-bound and the internalized fractions were measured in a gamma counter. The cell uptake was calculated as percent of the initially added radioactivity bound to 10^5 cells [% ID/10^5 cells].

[1] = LNCaP cells, 0.8 nM 68Ga-PSMA-10 radioligand, read-out: Specific Binding Affinity IC50

T1 sequence (Q04609 whole entry): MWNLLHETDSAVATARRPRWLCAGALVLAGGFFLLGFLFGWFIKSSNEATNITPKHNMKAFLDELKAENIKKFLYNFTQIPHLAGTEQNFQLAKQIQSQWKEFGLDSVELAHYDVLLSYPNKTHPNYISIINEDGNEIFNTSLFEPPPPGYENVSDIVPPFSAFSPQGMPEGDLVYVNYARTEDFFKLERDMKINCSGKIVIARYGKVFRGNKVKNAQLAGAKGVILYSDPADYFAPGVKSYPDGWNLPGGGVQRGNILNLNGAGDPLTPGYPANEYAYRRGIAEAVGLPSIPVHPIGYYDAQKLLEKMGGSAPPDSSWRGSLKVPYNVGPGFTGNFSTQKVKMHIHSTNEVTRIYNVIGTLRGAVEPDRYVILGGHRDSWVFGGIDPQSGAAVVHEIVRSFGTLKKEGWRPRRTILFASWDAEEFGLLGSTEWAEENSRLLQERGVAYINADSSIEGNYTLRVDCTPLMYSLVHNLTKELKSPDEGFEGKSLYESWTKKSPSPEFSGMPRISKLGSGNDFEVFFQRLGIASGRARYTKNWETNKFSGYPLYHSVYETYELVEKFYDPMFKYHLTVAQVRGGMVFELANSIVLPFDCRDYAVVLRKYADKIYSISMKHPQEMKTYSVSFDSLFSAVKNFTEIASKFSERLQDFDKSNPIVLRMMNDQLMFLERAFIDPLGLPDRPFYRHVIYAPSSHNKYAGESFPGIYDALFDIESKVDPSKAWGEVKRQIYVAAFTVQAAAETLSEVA

| Structure (SMILES) | IC50 (PSMA; [1]) [µM] | Specific Cell Surface Binding (PSMA+ LNCaP cells) [% ID/10^5 cells] | Specific Internalization (PSMA+ LNCaP cells) [% ID/10^5 cells] | Cell Surface binding (PSMA+ LNCaP cells; blocked) [% ID/10^5 cells] | Internalization (PSMA+ LNCaP cells; blocked) [% ID/10^5 cells] | Cell Surface binding (PSMA+ LNCaP cells; not blocked) [% ID/10^5 cells] | Internalization (PSMA+ LNCaP cells; not blocked) [% ID/10^5 cells] | IC50 (PSMA) [µM] | Specific cell surface bound (PSMA+ LNCaP cells) [% ID/10^5 cells] | Specific internalized (PSMA+ LNCaP cells) [% ID/10^5 cells] |
| --- | --- | --- | --- | --- | --- | --- | --- | --- | --- | --- |
| O=C(O)CC[C@H](NC(=O)N[C@@H](CCCCNC(=O)[C@H](Cc1ccc2ccccc2c1)NC(=O)[C@H](Cc1c[nH]cn1)NC(=O)[C@H](Cc1c[nH]cn1)NC(=O)[C@H](Cc1c[nH]cn1)NC(=O)[C@H]1CC[C@H](CNC(=O)CN2CCN(CC(=O)O)CCN(CC(=O)O)CCN(CC(=O)O)CC2)CC1)C(=O)O)C(=O)O [PS10, DOTA-CHx-(H)3-2NaI-PSMA] ({DOTA-Trx}-HHH[2Nal]-EuK) | 0.054 ± 0.0209 | 0.55 ± 0.08 | 0.44 ± 0.08 | 0.027 ± 0.006 | 0.083 ± 0.006 | 0.580 ± 0.046 | 0.523 ± 0.078 |  |  |  |
| O=C(O)CC[C@H](NC(=O)N[C@@H](CCCCNC(=O)[C@H](Cc1ccc2ccccc2c1)NC(=O)[C@H]1CC[C@H](CNC(=O)[C@H](CCC(=O)O)NC(=O)[C@H](CCC(=O)O)NC(=O)[C@H](CCC(=O)O)NC(=O)CN2CCN(CC(=O)O)CCN(CC(=O)O)CCN(CC(=O)O)CC2)CC1)C(=O)O)C(=O)O [PS-5, DOTA-(E)3-CHx-2NaI-PSMA] ({DOTA}-EEE[Trx][2Nal]-EuK) |  | 0.94 ± 0.13 | 0.63 ± 0.28 | 0.055 ± 0.013 | 0.095 ± 0.026 | 1.003 ± 0.127 | 0.725 ± 0.269 | 0.0104 ± 0.00294 |  |  |
| O=C(O)CC[C@H](NC(=O)N[C@@H](CCCCNC(=O)[C@H](Cc1c[nH]cn1)NC(=O)[C@H](Cc1c[nH]cn1)NC(=O)[C@H](Cc1c[nH]cn1)NC(=O)[C@H](Cc1ccc2ccccc2c1)NC(=O)[C@H]1CC[C@H](CNC(=O)CN2CCN(CC(=O)O)CCN(CC(=O)O)CCN(CC(=O)O)CC2)CC1)C(=O)O)C(=O)O [PS-8, DOTA-CHx-2NaI-(H)3-PSMA] ({DOTA-Trx}-[2Nal]HHH-EuK) | 0.0786 ± 0.0441 | 0.90 ± 0.03 | 0.51 ± 0.05 | 0.038 ± 0.010 | 0.093 ± 0.033 | 0.945 ± 0.030 | 0.600 ± 0.066 |  |  |  |
| O=C(O)CC[C@H](NC(=O)N[C@@H](CCCCNC(=O)[C@H](Cc1ccc2ccccc2c1)NC(=O)[C@H](CCC(=O)O)NC(=O)[C@H](CCC(=O)O)NC(=O)[C@H](CCC(=O)O)NC(=O)[C@H]1CC[C@H](CNC(=O)CN2CCN(CC(=O)O)CCN(CC(=O)O)CCN(CC(=O)O)CC2)CC1)C(=O)O)C(=O)O [PS-9, DOTA-CHx-(E)3-2NaI-PSMA] ({DOTA-Trx}-EEE[2Nal]-EuK) | 0.0234 ± 0.0097 | 0.59 ± 0.09 | 0.27 ± 0.07 | 0.060 ± 0.021 | 0.138 ± 0.046 | 0.650 ± 0.083 | 0.410 ± 0.090 |  |  |  |
| O=C(O)CC[C@H](NC(=O)N[C@@H](CCCCNC(=O)[C@H](Cc1ccc2ccccc2c1)NC(=O)[C@H](Cc1c[nH]cn1)NC(=O)[C@H](CCC(=O)O)NC(=O)[C@H](Cc1c[nH]cn1)NC(=O)[C@H](CCC(=O)O)NC(=O)[C@H](Cc1c[nH]cn1)NC(=O)[C@H](CCC(=O)O)NC(=O)[C@H]1CC[C@H](CNC(=O)CN2CCN(CC(=O)O)CCN(CC(=O)O)CCN(CC(=O)O)CC2)CC1)C(=O)O)C(=O)O [PS-3, DOTA-Chx-(EH)3-2NaI-PSMA] ({DOTA-Trx}-EHEHEH[2Nal]-EuK) | 0.0431 ± 0.00963 | 0.84 ± 0.03 | 0.24 ± 0.02 | 0.183 ± 0.025 | 0.317 ± 0.025 | 1.023 ± 0.140 | 0.557 ± 0.042 |  |  |  |
| O=C(O)CCC(NC(=O)NC(CCCCNC(=O)C(Cc1ccc2ccccc2c1)NC(=O)C1CCC(CNC(=O)CN2CCN(CC(=O)O)CCN(CC(=O)O)CCN(CC(=O)O)CC2)CC1)C(=O)O)C(=O)O (stereo not drawn) [PSMA-617, 2-[3-(1-Carboxy-5-{3-naphthalen-2-yl-2-[(4-{[2-(4,7,10-tris-carboxymethyl-1,4,7,10-tetraaza-cyclododec-1-yl)-acetylamino]-methyl}-cyclohexanecarbonyl)-amino]-propionylamino}-pentyl)-ureido]-pentanedioic acid, reference compound] | 0.0218 ± 0.00313 | 0.72 ± 0.06 | 0.39 ± 0.06 | 0.063 ± 0.014 | 0.117 ± 0.032 | 0.792 ± 0.134 | 0.504 ± 0.051 |  | 4.36 ± 1.33 | 2.94 ± 0.35 |
| O=C(O)CC[C@H](NC(=O)N[C@@H](CCCCNC(=O)[C@H](Cc1c[nH]cn1)NC(=O)[C@H](CCC(=O)O)NC(=O)[C@H](Cc1c[nH]cn1)NC(=O)[C@H](CCC(=O)O)NC(=O)[C@H](Cc1c[nH]cn1)NC(=O)[C@H](CCC(=O)O)NC(=O)[C@H](Cc1ccc2ccccc2c1)NC(=O)[C@H]1CC[C@H](CNC(=O)CN2CCN(CC(=O)O)CCN(CC(=O)O)CCN(CC(=O)O)CC2)CC1)C(=O)O)C(=O)O [PS-1, DOTA-CHx-2NaI-(EH)3-PSMA] ({DOTA-Trx}-[2Nal]EHEHEH-EuK) | 0.056 ± 0.0077 | 1.09 ± 0.17 | 0.46 ± 0.11 | 0.069 ± 0.013 | 0.212 ± 0.037 | 1.162 ± 0.183 | 0.676 ± 0.155 |  | 6.84 ± 0.06 | 4.32 ± 0.03 |
| O=C(O)CC[C@H](NC(=O)N[C@@H](CCCCNC(=O)[C@H](Cc1ccc2ccccc2c1)NC(=O)[C@H]1CC[C@H](CNC(=O)[C@H](Cc2c[nH]cn2)NC(=O)[C@H](CCC(=O)O)NC(=O)[C@H](Cc2c[nH]cn2)NC(=O)[C@H](CCC(=O)O)NC(=O)[C@H](Cc2c[nH]cn2)NC(=O)[C@H](CCC(=O)O)NC(=O)CN2CCN(CC(=O)O)CCN(CC(=O)O)CCN(CC(=O)O)CC2)CC1)C(=O)O)C(=O)O [PS-2, DOTA-(EH)3-CHx-2NaI-PSMA] ({DOTA}-EHEHEH[Trx][2Nal]-EuK) | 0.037 ± 0.0114 | 1.27 ± 0.15 | 0.61 ± 0.15 | 0.060 ± 0.017 | 0.187 ± 0.032 | 1.333 ± 0.127 | 0.797 ± 0.122 |  | 9.55 ± 1.61 | 6.00 ± 0.71 |
| O=C(O)CC[C@H](NC(=O)N[C@@H](CCCCNC(=O)[C@H](CCC(=O)O)NC(=O)[C@H](CCC(=O)O)NC(=O)[C@H](CCC(=O)O)NC(=O)[C@H](Cc1ccc2ccccc2c1)NC(=O)[C@H]1CC[C@H](CNC(=O)CN2CCN(CC(=O)O)CCN(CC(=O)O)CCN(CC(=O)O)CC2)CC1)C(=O)O)C(=O)O [PS-6, DOTA-CHx-2NaI-(E)3-PSMA] ({DOTA-Trx}-[2Nal]EEE-EuK) | 0.0286 ± 0.00842 | 0.71 ± 0.12 | 0.45 ± 0.12 | 0.050 ± 0.020 | 0.156 ± 0.023 | 0.767 ± 0.156 | 0.607 ± 0.136 |  |  |  |
